Assay [1] has as its system anterograde transport of dynein-GFP in axons of primary hippocampal neurons. Briefly: Slow axonal transport photobleaching assay (dynein-GFP midpoint displacement). Conditions: for mean velocity of dynein-GFP displacement / mean velocity of dynein-GFP: 3 cultures; for mean velocity of dynein-GFP: 500 ng peptide complexed with Chariot reagent, pre-treated 45–60 min; for mean velocity of dynein-GFP / kymographs with no or retrograde bias: n = 27 (control) and 29 (DIC1a) axons. It is filed as cell-based, mouse. Here is the method:
Primary hippocampal neurons from dynein-GFP mice were cultured for 8–10 DIV in 900 μm microfluidic devices in order to image single axons of known polarity. Post bleach motility was imaged for 60 s at 0.5 fps. A line scan was made for every frame of the time series, then movement of the photo-protected dynein-GFP pool was quantified by defining retrograde and anterograde edges at the half-maximal fluorescence value and tracking the displacement of the midpoint (Figure 6B). The peak of fluorescence intensity decreased with time as the dynein-GFP pool shifted in both anterograde and retrograde directions. However, the relative midpoint could be seen moving with a clear bias in the anterograde direction for several seconds (Figure 6C), particularly when overlaid onto the more standard kymograph representation of axonal transport (Figure 6D). […] By fitting a linear regression to each relative midpoint position over time, we observed anterograde velocities ranging from 0.01 to 0.1 μm/s. However, ∼80% of events were in the 0.01 to 0.05 μm/s range or approximately 1–5 mm a day. All net anterograde velocities were consistent with known speeds of slow axonal transport of cytoplasmic dynein in vivo ([Dillman et al., 1996a], [Dillman et al., 1996b]).
First, we tested whether the anterograde transport of dynein was microtubule dependent, using nocodazole (final concentration 30 μM) to depolymerize microtubules. Every viable isolated axon (see Experimental Procedures) within the microgrooves of the chamber was imaged following the bleaching protocol described above. The relative position of the midpoint for each kymograph was calculated (see Figure 7A for examples) and the mean midpoint displacement ± SEM was plotted for all axons (Figure 7B). […] To establish a mean velocity for dynein-GFP, we fitted each midpoint shift with a linear regression.
To directly test our hypothesis that interactions between dynein and kinesin-1 are required for the anterograde transport of dynein in the axon, we designed a peptide to block the interaction between DIC1 and KLC. We chose a 19-amino-acid-long sequence centered on the tryptophan in WD1 of DIC1a. […] Hippocampal neuronal cultures were pre-treated for 45–60 min with either DIC1a or control peptide, complexed with Chariot reagent for delivery across the plasma membrane. […] Consequently, the anterograde transport of dynein-GFP in the axon is critically dependent on the interaction between dynein subunit DIC1a and the KLCs of kinesin-1.
Live cell imaging of hippocampal cultures was performed in Hibernate E low fluorescence medium in a humidified temperature controlled (37°C) live cell chamber, on an Ultraview Vox (PerkinElmer) dual-imaging system mounted on an inverted Nikon Ti microscope with either 100× or 60× apochromat 1.49 NA oil-immersion objectives (Nikon), fully controlled by Volocity software (PerkinElmer). FRAP and slow axonal transport imaging used the spinning-disk confocal with an Ultraview Photokinesis unit for bleaching and a C9100-50 EM-CCD (Hamamatsu) camera. Near-TIRF imaging used the Nikon TIRF system with an EM-CCD C9100-13 camera (Hamamatsu). Image analysis was performed in FIJI ([Schindelin et al., 2012]) with follow up analysis in R (RStudio). Specifics for each experiment are listed in the Supplemental Experimental Procedures. […]
Slow axonal transport imaging and drug treatments
Axons were imaged with a 100X objective (Nikon). Acquisition speed was 1 frame every two seconds.
For Nocodazole and Taxol drug treatments, […] and 200 nM respective final concentrations were added
to each well of the microfluidic chamber in imaging media (Hibernate E Low Fluorescence media) 45-60
minutes prior to imaging, with hydrostatic pressure across the microgrooves of the microfluidic device to
ensure drugs reached the axons within the grooves.
Peptides were supplied by GenScript, and sequences are VCFYLLLQTWVFPYTHDLH and
LVQPLHFLTWDTCYFHYLV for Control and DIC1a-WD1 peptides respectively. […]

A further assay has as its system EB3 comets in the axon. The assay is described as follows: EB3-mCherry comet density in axons. The format is cell-based, mouse. Conditions: taxol 200 nM, 45-60 min pre-treatment, mean; DMSO control 0.12; p = 0.008. The procedure: Figure S5. Related to Figure 7.
The slow anterograde transport of dynein in the axon is not dependent on dynamic microtubules.
(A) Taxol treatment reduces the density of EB3 comets in the axon. Example kymographs (left) and quantification (right) of
EB3-mCherry comet density in DMSO control and taxol treated axons. Pre-treatment with taxol (200 nM final concentration) for
45-60 minutes prior to imaging reduces the density of EB3 comets in the axon from 0.12 to 0.03 comets/µm/min. Heavy line =
mean, box = sem, grey dots = individual axons. Axons were imaged at 1 frame per second for 3 minutes using live cell spinning
disk confocal microscopy. […]
neurons showing relative positions of anterograde and retrograde intercept (blue) and the calculated midpoint displacement […]
spots are the velocities for each measured kymograph with colour indicating the overall direction of the midpoint displacement. […]
Taxol mean velocity 0.020±0.004 µm/s. p value calculated by a two-sample t-test. […]
Cells were imaged with 60X objective with near-TIRF illumination to eliminate excessive fluorescence […]
every ten minutes, with stage position controlled by Velocity software. For quantification, a threshold was […]
the movie and integrated density of each neurite was measured over time. […]
to each well of the microfluidic chamber in imaging media (Hibernate E Low Fluorescence media) 45-60 […]

In the next assay the test system is KLC1TPR. The assay is described as follows: Fluorescence polarization competition assay with TAMRA-labeled WD1pept. The format is binding. Conditions: 300 nM TAMRA-DICWD1 and 25 µM KLC TPR (approx. 70% saturation), increasing unlabeled peptide, Figure S3D; typically in triplicate. Here is the method:
Measurements were performed as previously described ([Pernigo et al., 2013]) with modifications as listed in Supplemental Experimental Procedures. […]
Log unlabelled peptide [nM]
Figure S3. Related to Figure 3.
(A-C) Isoforms of the mouse cytoplasmic dynein intermediate chain, based on data from (Kuta et al., 2010). The splice forms of DIC1 (A) and DIC2 (B) from the genes Dync1i1 and Dync1i2 respectively, relative to the longest isoform of each with key structural elements indicated: coiled coil required for NudE and p150 binding (McKenney et al., 2011; Nyarko et al., 2012); binding sites of the dynein light chains Tctex (Mok et al., 2001), LC8 (Lo et al., 2001) and Roadblock (Susalka et al., 2002); WD repeats 1-7 of the WD40 domain. Sequence alignments of all DIC isoforms centred on the two alternatively spliced regions: AS Loop 1 and AS Loop 2 (C). […]
(D) In a fluorescence polarization competition assay, TAMRA-labeled WD1pept bound to KLC1TPR is competed off with both unlabeled SKIPWD (with a single tryptophan motif) or a longer peptide encompassing both motifs (SKIPWDWE). […]
Fluorescence polarization measurements […]
[…] All fluorescence polarization (FP) measurements were carried out on a BMG Labtech PolarStar Omega plate reader at 20 °C by incubating 300 nM TAMRA-labeled peptides with His6-tagged KLC2TPR at increasing concentrations in 25 mM Hepes pH 7.5, 150 mM NaCl, 5 mM β-mercaptoethanol. […]

Where [2] appears, read: 500 ng peptide with Chariot reagent, mean ± SEM.
Where [3] appears, read: 500 ng peptide with Chariot reagent.

Turning to `CC(=O)O[C@H]1C(=O)[C@@]2(C)[C@H]([C@H](OC(=O)c3ccccc3)[C@]3(O)C[C@H](OC(=O)[C@H](O)[C@@H](NC(=O)c4ccccc4)c4ccccc4)C(C)=C1C3(C)C)[C@]1(OC(C)=O)CO[C@@H]1C[C@@H]2O` [Taxol, taxol], the “mean velocity of dynein-GFP displacement” value in assay [1] (taxol 200 nM, 45-60 min pre-treatment, mean ± sem, n = 39 axons, DMSO 0.023±0.005 µm/s, p = 0.6 two-sample t-test) is reported as 0.020±0.004 µm/s. Further, the “inhibition of anterograde bias of dynein transport” value in assay [1] (taxol 200 nM, Figures S5B–S5D) is on record as “no inhibition in the anterograde bias of dynein transport”. Besides, the “density of EB3 comets in the axon” value in the assay with EB3 comets in the axon stood at 0.03 comets/µm/min.

As for “STNLEWDDSAI [SKIPWD, unlabeled SKIP peptide with a single tryptophan motif]”, in the assay with KLC1TPR, the “competition of WD1pept” value is “compete off WD1pept in a concentration dependent manner”.

With `COC(=O)Nc1nc2ccc(C(=O)c3cccs3)cc2[nH]1` [Nocodazole, nocodazole], in assay [1] (nocodazole, final concentration 30 μM, Figures 7A and 7B), the “net motility / anterograde bias” value is recorded as “abrogated the anterograde bias in transport seen in DMSO control neurons, with no net motility in either the anterograde or retrograde direction”. Moreover, the “mean velocity of dynein-GFP displacement” value in assay [1] (nocodazole, final concentration 30 μM, linear regression, mean ± SEM, n = 22 axons, DMSO control 0.018 ± 0.005 μm/s) is on record as “–0.001 ± 0.005 μm/s”.

LVQPLHFLTWDTCYFHYLV [DIC1a peptide]: the “mean velocity of dynein-GFP” value in assay [1] (all kymographs, mean ± SEM) is 0.012 ± 0.005 μm/s. The “anterograde bias of dynein-GFP transport” value in assay [1] (500 ng peptide with Chariot reagent, Figure 7E) is “substantial reduction in the anterograde bias of dynein-GFP transport”. In addition, the “reduction of mean dynein-GFP velocity versus control peptide” value in assay [1] (500 ng peptide with Chariot reagent, all kymographs) is recorded as “over 50%”. In addition, in assay [1] (setting [2]), the “mean velocity of anterograde only kymographs” value is recorded as 0.029 ± 0.003 μm/s. The “kymographs with no or retrograde bias” value in assay [1] (setting [3]) was found to be 38%. Moreover, in assay [1] (500 ng peptide with Chariot reagent, n = 29 axons), the “kymographs showing anterograde velocities over 0.05 μm/s” value is listed as “complete loss”.

Regarding VCFYLLLQTWVFPYTHDLH [control peptide], the “mean velocity of dynein-GFP” value in assay [1] (all kymographs, mean ± SEM) is 0.029 ± 0.005 μm/s. The “mean velocity of anterograde only kymographs” value in assay [1] (setting [2]) stood at 0.036 ± 0.004 μm/s. Further, in assay [1] (setting [3]), the “kymographs with no or retrograde bias” value is recorded as 15%. In assay [1] (500 ng peptide with Chariot reagent, n = 27 axons (control)), the “kymographs with anterograde velocity over 0.05 μm/s” value is reported as 22%.

Take “STNLEWDDSAIAPSSEDYDFGDVFPAVPSTPR VPSTDWEDGDL [SKIPWDWE, longer SKIP peptide encompassing both motifs]”: the “competition of WD1pept” value with KLC1TPR was “longer and higher affinity SKIPWDWE peptide doing so more efficiently”.

The values are drawn from paper PMC4893161, “The Dynamic Localization of Cytoplasmic Dynein in Neurons Is Driven by Kinesin-1” (Neuron, 2016).
